Results from PubChem BioAssay (NCI).
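Five compound concentrations were applied to cells in 96-well plates for 48 hours; endpoints were derived by simple linear interpolation of the resulting dose-response curve. Here, GI50 denotes the concentration required for 50% inhibition of growth. TGI: concentration producing complete growth inhibition.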

How the values were obtained:
Assay in all cases: inhibition of tumour cell growth, NCI panel, 48 h
SNB-75 CNS = test system: SNB-75 CNS
SR leukemia = test system: SR leukemia
HCC-2998 colon = test system: HCC-2998 colon
HCT-116 colon = test system: HCT-116 colon
COLO 205 colon = test system: COLO 205 colon
786-0 renal = test system: 786-0 renal
SF-539 CNS = test system: SF-539 CNS
NCI-H226 lung = test system: NCI-H226 lung
ACHN renal = test system: ACHN renal
SK-OV-3 ovarian = test system: SK-OV-3 ovarian

Row | Compound | GI50 (SNB-75 CNS) | TGI (SNB-75 CNS) | GI50 (SR leukemia) | TGI (SR leukemia) | GI50 (HCC-2998 colon) | TGI (HCC-2998 colon) | GI50 (HCT-116 colon) | TGI (HCT-116 colon) | GI50 (COLO 205 colon) | TGI (COLO 205 colon) | GI50 (786-0 renal) | TGI (786-0 renal) | GI50 (SF-539 CNS) | TGI (SF-539 CNS) | GI50 (NCI-H226 lung) | TGI (NCI-H226 lung) | GI50 (ACHN renal) | TGI (ACHN renal) | GI50 (SK-OV-3 ovarian) | TGI (SK-OV-3 ovarian)
1 | Cn1cc(-c2csc(-c3cn(C)c4ncccc34)n2)c2ccccc21 | 0.191 µM | 0.737 µM | 0.0961 µM | > 43.9 µM | 1.15 µM | > 100 µM | 0.354 µM | 19 µM | 0.229 µM | 1.05 µM | 0.588 µM | 18.1 µM | 0.158 µM | 0.579 µM | 0.86 µM | 26.7 µM | 0.899 µM | 16.6 µM | 0.544 µM | 15.7 µM
2 | Cc1cc2c(C)nn(Cc3ccc(Cl)cc3Cl)c2c(C#N)c1C | – | > 100 µM | – | > 100 µM | – | > 100 µM | – | > 100 µM | – | – | – | > 100 µM | – | > 100 µM | – | > 100 µM | – | > 100 µM | – | > 100 µM
3 | COC(=O)C12C3C=CC(O3)C1C1C=CC2O1 (configuration not stated) | – | – | – | > 100 µM | – | > 100 µM | – | – | – | > 100 µM | – | > 100 µM | – | > 100 µM | – | > 100 µM | – | > 100 µM | – | > 100 µM
4 | CC(=O)OCC1OC(n2cnc3c(I)nc(I)nc32)C(OC(C)=O)C1OC(C)=O (configuration not stated) | – | 30.2 µM | – | 11.8 µM | – | 16.9 µM | – | 16.7 µM | – | – | – | 27.8 µM | – | 29.6 µM | – | 35.5 µM | – | 21.8 µM | – | –
5 | S=c1nc(/C=C/c2ccc(Cl)c(Cl)c2)[nH][nH]1 | > 100 µM | > 100 µM | 22.7 µM | > 100 µM | – | > 100 µM | – | > 100 µM | – | – | – | > 100 µM | – | > 100 µM | – | > 100 µM | – | > 100 µM | – | > 100 µM
6 | O=C(NCCS(=O)(=O)N1C(=O)C2CCCN2C(=O)[C@@H]1Cc1ccccc1)OCc1ccccc1 (some centres not stated) | – | > 100 µM | – | > 100 µM | – | 73.2 µM | – | > 100 µM | – | 58.4 µM | – | > 100 µM | – | > 100 µM | – | > 100 µM | – | > 100 µM | – | > 100 µM
7 | CCN1N=CSC12C(=O)N(c1ccccc1)C(=O)N2c1ccccc1 (configuration not stated) | – | > 100 µM | – | > 100 µM | – | > 100 µM | – | > 100 µM | – | > 100 µM | – | > 100 µM | – | > 100 µM | – | > 100 µM | – | > 100 µM | – | > 100 µM
8 | COc1ccc(Nc2nc3c(N)cc(C(F)(F)F)cc3nc2-c2ccccc2)cc1 | – | 82.2 µM | – | > 100 µM | – | > 100 µM | – | > 100 µM | – | > 100 µM | – | > 100 µM | – | > 100 µM | – | > 100 µM | – | > 100 µM | – | > 100 µM
9 | Cc1ccc2c(c1)/C(=N\N=C/c1cn(C(C)C)c3ccccc13)C(=O)N2 | 3.2 µM | > 100 µM | 0.261 µM | > 100 µM | 2.42 µM | 14.9 µM | 1.09 µM | > 100 µM | 0.324 µM | 2.08 µM | 18.6 µM | > 100 µM | 2.9 µM | > 100 µM | 2.67 µM | > 100 µM | 2.95 µM | > 100 µM | > 100 µM | > 100 µM
10 | COC12c3ccccc3-c3ccccc3C1[C@@H](C(=O)O)[C@H]2C(=O)O (some centres not stated) | – | > 10 µM | – | > 10 µM | – | > 10 µM | – | – | – | > 10 µM | – | > 10 µM | – | > 10 µM | – | > 10 µM | – | > 10 µM | – | > 10 µM
11 | Cn1cccc1C1CC(=O)N(CCC[Se]C#N)C1=O (configuration not stated) | – | – | 2.76 µM | > 100 µM | 2.96 µM | 10.1 µM | 2.34 µM | 6.27 µM | 2.1 µM | 4.88 µM | 1.95 µM | 3.44 µM | 1.96 µM | 3.66 µM | 1.62 µM | 4.3 µM | 2.11 µM | 4.4 µM | 3.22 µM | 6.72 µM
12 | CC(=O)NNc1nc(C)c(C(/C=C/c2ccc3c(c2)OCO3)=N/NC(=O)c2ccncc2)s1 | – | > 100 µM | – | > 100 µM | – | > 100 µM | – | > 100 µM | – | – | – | > 100 µM | – | > 100 µM | – | > 100 µM | – | > 100 µM | – | > 100 µM
13 | CN(C)c1ccc(N=C(C#N)c2nc(N)nc(N3CCOCC3)n2)cc1 | 18.7 µM | 49.4 µM | 34.9 µM | > 100 µM | > 100 µM | > 100 µM | – | – | > 100 µM | > 100 µM | 35.6 µM | > 100 µM | 21.4 µM | 46.1 µM | > 100 µM | > 100 µM | 23.3 µM | 68.4 µM | 66.2 µM | > 100 µM
14 | CC/C(=C(/CC)c1ccc(OP(=O)([O-])[O-])cc1)c1ccc(OP(=O)([O-])[O-])cc1.N.N.N.N.[Pt+4].[Pt+4] | 1.24 µM | 7.4 µM | 1.28 µM | > 100 µM | 11.6 µM | 24 µM | 5.66 µM | > 100 µM | – | – | 4.77 µM | > 100 µM | 3.51 µM | – | 2.31 µM | 4.96 µM | 2.08 µM | 10.9 µM | 3.85 µM | 17 µM
